We go through 21 compounds from patent US12668599B2, “Heterobifunctional compounds and methods of treating disease” (Halda Therapeutics OpCo, Inc., priority 2023, dated 2026).

Assay [1] deals with T-Rex 293 cell line SC3 cells lacking increased expression of androgen receptor protein. In words: Cellular growth inhibition, T-Rex 293 SC3 cells without doxycycline (CellTiter-Glo 2.0, 72 hours). The conditions noted are these: T-Rex 293 SC3 cells not exposed to doxycycline (no increased androgen receptor expression). The class given is cell-based. On the procedure:
(§1) Ability of the test compounds to inhibit proliferation of the foregoing cell types was evaluated according to the procedures set forth below.
(§2) The doxycycline-inducible androgen receptor protein expressing cell line was established using the following protocol: T-Rex 293 cells were purchased from Invitrogen (Cat #R71007) and transfected using Lipofectamine 2000 with the wild-type androgen receptor protein sequence cloned into the pcDNA4/TO vector. Transfected cells were selected using 400 μg/mL Zeocin (Invitrogen Cat #R25001). Following selection, single clones were raised and maintained in Dulbecco's Modified Eagle Medium (DMEM) supplemented with 10% w/w Tetracycline-free fetal bovine serum (FBS) and 250 μg/mL Zeocin. Clones were analyzed for expression of androgen receptor protein in the presence and absence of 10 ng/ml doxycycline (Sigma Cat #D9891), and a single doxycycline-inducible clone (hereinafter “SC3”) was selected for use in downstream assays.
(§3) The SC3 cells were seeded on poly-D-lysine coated, black clear-bottom 384-well plates at 2500/well, in 25 μL Phenol Red Free Dulbecco's Modified Eagle Medium (DMEM) supplemented with 10% w/w charcoal-dextran treated fetal bovine serum (FBS) and 1% w/w pen-strep, with or without 10 ng/ml doxycycline. Pen-Strep is a commercially available mixture of penicillin G and streptomycin, which is used in mammalian cell culture media to prevent bacterial contamination. Phenol Red Free Dulbecco's Modified Eagle Medium (DMEM) supplemented with 10% w/w charcoal-dextran treated fetal bovine serum (FBS) and 1% w/w pen-strep, with or without 10 ng/mL doxycycline is herein referred to as Treatment Medium. Following seeding of cells in the plates, the plates were spun at 300×g for 30 seconds, then equilibrated to room temperature for 30 minutes, and then deposited in a humidified tissue culture incubator maintained at 37° C. with 5% CO2.
(§4) At 24 hours after seeding of the cells, dilutions of test compound were prepared in DMSO and dissolved in Treatment Medium, to achieve a final DMSO concentration of 0.5% w/w, thereby providing the Test Compound Solution. A 25 μL aliquot of the Test Compound Solution was added to cells in the well plates. An equal volume of a solution containing DMSO and Treatment Medium was used as a negative control. Following treatment of cells with Test Compound Solution or said equal volume of a solution containing DMSO and Treatment Medium, the plates were spun at 300×g for 30 seconds, and then left in an incubator for 72 hours.
(§5) At the end of the treatment duration, cell viability was quantified with CellTiter-Glo 2.0 reagent (Promega Cat #G9243). For this purpose, plates were equilibrated to room temperature for 30 minutes, and then 25 μL of CellTiter-Glo 2.0 reagent was added to cells in the plate wells. Plates were then agitated on a shaker for two minutes at 500 rpm and subsequently incubated at room temperature for 10 minutes. Following incubation, the plates were spun at 3000×g for 30 seconds, then sealed with an optical adhesive cover, and luminescence readings were measured with an En Vision Plate Reader.
(§6) Data was normalized using zero luminescence for baseline. A four-parameter non-linear regression curve fit was applied to dose-response data in GraphPad Prism data analysis software to determine the half-maximal growth inhibitory concentration (GI50) for each test compound.
(In ATP-based viability assays light output follows the ATP content of the culture.)

Assay [2] concerns VCaP cells. The assay is described as follows: Cellular growth inhibition assay for VCaP cells (CellTiter-Glo 2.0, 72 hours). The note with it: for GI50: CellTiter-Glo 2.0; for Ratio of GI50's: GI50 of the top compound in the pair divided by GI50 of the lower compound. The class given is cell-based, human. On the procedure:
Exemplary compounds were tested for ability to inhibit the proliferation of VCaP cells. VCap cells are a commercially available human prostate cancer cell line.
VCaP cells were purchased from American Type Cell Culture (ATCC Cat #CRL2876) and then seeded on poly-D-lysine coated, black clear-bottom 384-well plates at 5000/well in 25 μL Dulbecco's Modified Eagle Medium (DMEM) supplemented with 10% w/w Fetal bovine serum (FBS) and 1% w/w Pen-Strep. Pen-Strep is a commercially available mixture of penicillin G and streptomycin, which is used in mammalian cell culture media to prevent bacterial contamination. Dulbecco's Modified Eagle Medium (DMEM) supplemented with 10% w/w fetal bovine serum (FBS) and 1% w/w Pen-Strep is herein referred to as Treatment Medium. Following seeding of cells in the plates, the plates were spun at 300×g for 30 seconds, then equilibrated to room temperature for 30 minutes, and then deposited in a humidified tissue culture incubator maintained at 37° C. with 5% CO2.
as §4, §5, §6

The test system of assay [3] is T-Rex 293 cell line SC3 cells having increased expression of androgen receptor protein due to exposure to doxycycline. In words: Cellular growth inhibition, T-Rex 293 SC3 cells with doxycycline-induced androgen receptor (CellTiter-Glo 2.0, 72 hours). It counts as cell-based. The note with it: for GI50: T-Rex 293 SC3 cells with 10 ng/ml doxycycline (increased androgen receptor expression), 72 hours, CellTiter-Glo 2.0; for Ratio of GI50's: GI50 of the top compound in the pair divided by GI50 of the lower compound, T-Rex 293 SC3 cells with doxycycline-induced androgen receptor. On the procedure:
as §1, §2, §3, §4, §5, §6

Turning to `COc1cc(O[C@H]2CC[C@H](NC(=O)c3ccc(N4CCC5(CCC(Oc6ccc(C7=N[C@@H](C)c8nnc(C)n8-c8sc(C)c(C)c87)cc6)C5)C4)nn3)CC2)ccc1C#N` (single isomer, unassigned) [Compound I-49], the GI50 (usually the concentration at which growth is held to half of that of the control) in assay [1] (72 h) was less than 500 nM; in assay [2] (Homo sapiens, VCaP, 72 h), less than 500 nM; in assay [3], less than 500 nM.

On to `COc1cc(O[C@H]2CC[C@H](NC(=O)c3ccc(N4CCC5(CCC(c6ccc(C7=N[C@@H](C)c8nnc(C)n8-c8sc(C)c(C)c87)cc6F)CC5)C4)nn3)CC2)ccc1C#N` (single isomer, unassigned) [Compound I-56], for which the GI50 was less than 500 nM in assay [1] (72 h); less than 500 nM in assay [2] (Homo sapiens, VCaP, 72 h); less than 500 nM in assay [3].

On to `COc1cc(O[C@H]2CC[C@H](NC(=O)c3ccc(N4CCC5(CCC(c6ccc(C7=N[C@@H](C)c8nnc(C)n8-c8sc(C)c(C)c87)c(F)c6)CC5)C4)nn3)CC2)ccc1C#N` (single isomer, unassigned) [Compound I-58], for which the GI50 in assay [1] (72 h) was less than 500 nM; in assay [2] (Homo sapiens, VCaP, 72 h), less than 500 nM; in assay [3], less than 500 nM.

For the compound `COc1cc(O[C@H]2CC[C@H](NC(=O)c3ccc(N4CCC5(CCC(c6ccc(C7=N[C@@H](C)c8nnc(C)n8-c8sc(C)c(C)c87)c(Cl)c6)CC5)C4)nn3)CC2)ccc1C#N` (single isomer, unassigned) [Compound I-64], the GI50 in assay [1] (72 h) was less than 500 nM; in assay [2] (Homo sapiens, VCaP, 72 h) it was 500 to 1500 nM; in assay [3], less than 500 nM.

For `COc1cc(O[C@H]2CC[C@H](NC(=O)c3ccc(N4CCC5(CCC(c6ccc(C7=N[C@@H](C)c8nnc(C)n8-c8sc(C)c(C)c87)cc6OC)CC5)C4)nn3)CC2)ccc1C#N` (single isomer, unassigned) [Compound I-66], the 50% growth inhibitory concentration (GI50) was less than 500 nM in assay [1] (72 h); less than 500 nM in assay [2] (Homo sapiens, VCaP, 72 h); less than 500 nM in assay [3].

Turning to `COc1cc(O[C@H]2CC[C@H](NC(=O)c3ccc(N4CC5(CC(C#Cc6ccc(C7=NC(Cc8ncco8)c8nnc(C)n8-c8sc(C)c(C)c87)cc6F)C5)C4)nn3)CC2)ccc1C#N` (single isomer, unassigned) [Compound I-123], the GI50 was greater than 3000 nM in assay [1]; less than 500 nM in assay [2] (Homo sapiens, VCaP, 72 h); less than 500 nM in assay [3].

Consider `COc1cc(O[C@H]2CC[C@H](NC(=O)c3ccc(N4CC5(CC(C#Cc6ccc(C7=NC(Cc8ncco8)c8nnc(C)n8-c8sc(C)c(C)c87)cc6F)C5)C4)nn3)CC2)ccc1C#N` (single isomer, unassigned) [Compound I-127], for which the GI50 in assay [1], in assay [2] (72 hours) and in assay [3] was less than 500 nM in each case.

As to `Cc1sc2c(c1C)C(c1ccc(CC3CC4(CCN(c5ncc(C(=O)N[C@H]6C(C)(C)[C@H](Oc7ccc(C#N)c(Cl)c7)C6(C)C)cn5)CC4)C3)cc1)=N[C@@H](Cc1ncco1)c1nnc(C)n1-2` [C, reference compound], the “Ratio of GI50's” value is 2.6 in assay [2] and 22.0 in assay [3].

For `COc1cc(O[C@H]2CC[C@H](NC(=O)c3ccc(N4CCCC5(CCN(c6ccc(C7=N[C@@H](C)c8nnc(C)n8-c8sc(C)c(C)c87)cc6)CC5)C4)nn3)CC2)ccc1C#N` [Compound I-18], the GI50 in assay [2] (Homo sapiens, VCaP, 72 h) is less than 500 nM.

For the compound `COc1cc(O[C@H]2CC[C@H](NC(=O)c3ccc(N4CCCC5(CCN(c6ccc(C7=N[C@@H](C)c8nnc(C)n8-c8sc(C)c(C)c87)cc6)CC5)C4)nn3)CC2)ccc1C#N` [Compound I-26], the GI50 in assay [1] (72 h) and in assay [3] was less than 500 nM in each case.

For `COc1cc(O[C@H]2CC[C@H](NC(=O)c3ccc(N4CCC5(CCCN(c6ccc(C7=N[C@@H](C)c8nnc(C)n8-c8sc(C)c(C)c87)cc6)C5)C4)nn3)CC2)ccc1C#N` (stereo partly drawn) [Compound I-82, N-((1r,4r)-4-(4-cyano-3-methoxyphenoxy)cyclohexyl)-6-(7-(4-((S)-2,3,6,9-tetramethyl-6H-thieno[3,2-f][1,2,4]triazolo[4,3-a][1,4]diazepin-4-yl)phenyl)-2,7-diazaspiro[4.5]decan-2-yl) pyridazine-3-carboxamide], the GI50 in assay [2] (Homo sapiens, VCaP, 72 h) is less than 500 nM; in assay [3] it was less than 500 nM.

Compound `COc1cc(O[C@H]2CC[C@H](NC(=O)c3ccc(N4CCC5(CCCN(c6ccc(C7=N[C@@H](C)c8nnc(C)n8-c8sc(C)c(C)c87)cc6)C5)C4)nn3)CC2)ccc1C#N` (stereo partly shown) [Compound I-98] returned a GI50 in assay [1] (72 h) of less than 500 nM.

As for `COc1cc(O[C@H]2CC[C@H](NC(=O)c3ccc(N4CCC5(CCN(c6ccc(C7=N[C@@H](C)c8nnc(C)n8-c8sc(C)c(C)c87)cc6)CC56CCC6)C4)nn3)CC2)ccc1C#N` (stereo partly shown) [Compound I-130], the GI50 in assay [2] (Homo sapiens, VCaP, 72 h) was less than 500 nM; in assay [3], less than 500 nM.

`COc1cc(O[C@H]2CC[C@H](NC(=O)c3ccc(N4CCC5(CCN(c6ccc(C7=N[C@@H](C)c8nnc(C)n8-c8sc(C)c(C)c87)cc6)CC56CCC6)C4)nn3)CC2)ccc1C#N` (stereo partly shown) [Compound I-132] yielded a GI50 in assay [1] (72 h) of less than 500 nM.

Take `Cc1sc2c(c1C)C(c1ccc(C3CCC4(CC3)CCN(c3ncc(C(=O)N[C@H]5C(C)(C)[C@H](Oc6ccc(C#N)c(Cl)c6)C5(C)C)cn3)C4)cc1)=N[C@@H](Cc1ncco1)c1nnc(C)n1-2` [D, reference compound]: the “Ratio of GI50's” value in assay [2] is 6.5; in assay [3] it was 3.8.

For `Cc1sc2c(c1C)C(c1ccc(OC3CC4(CCN(c5ccc(C(=O)N[C@H]6CC[C@H](Oc7ccc(C#N)c(Cl)c7)CC6)nn5)CC4)C3)cc1)=N[C@@H](Cc1ncco1)c1nnc(C)n1-2` [E, reference compound], the “Ratio of GI50's” value is 4.4 in assay [2] and 4.7 in assay [3].

For `Cc1sc2c(c1C)C(c1ccc(CC3CC4(CCN(c5ccc(C(=O)N[C@H]6CC[C@H](Oc7ccc(C#N)c(Cl)c7)CC6)nn5)CC4)C3)cc1)=N[C@@H](Cc1ncco1)c1nnc(C)n1-2` [F, reference compound], the “Ratio of GI50's” value is recorded as 1.9 in assay [2] and 3.8 in assay [3].

In the case of `Cc1sc2c(c1C)C(c1ccc(C#CC3CC4(C3)CN(c3ccc(C(=O)N[C@H]5CC[C@H](Oc6ccc(C#N)c(Cl)c6)CC5)nn3)C4)cc1)=N[C@@H](Cc1ncco1)c1nnc(C)n1-2` [G, reference compound], the “Ratio of GI50's” value worked out at 1.5 in assay [2] and 1.7 in assay [3].

Turning to `Cc1sc2c(c1C)C(c1ccc(N3CCC4(CC3)CCN(c3ccc(C(=O)N[C@H]5CC[C@H](Oc6ccc(C#N)c(Cl)c6)CC5)nn3)C4)cc1)=N[C@@H](C)c1nnc(C)n1-2` [H, reference compound], the “Ratio of GI50's” value in assay [2] was 1.8; in assay [3], 8.4.

`Cc1sc2c(c1C)C(c1ccc(C3CCC4(CC3)CCN(c3ccc(C(=O)N[C@H]5CC[C@H](Oc6ccc(C#N)c(Cl)c6)CC5)nn3)C4)cc1)=N[C@@H](Cc1ncco1)c1nnc(C)n1-2` (stereo partly shown) [J, reference compound]: the figures for the “Ratio of GI50's” value in assay [2] and in assay [3] were 3.0 and 3.2, respectively.

For `Cc1sc2c(c1C)C(c1ccc(C#CC3CC4(C3)CN(c3ccc(C(=O)N[C@H]5CC[C@H](Oc6ccc(C#N)c(Cl)c6)CC5)nn3)C4)cc1F)=NC(Cc1ncco1)c1nnc(C)n1-2` (stereo partly shown) [K, reference compound], the figures for the “Ratio of GI50's” value in assay [2] and in assay [3] were 1.5 and 2.0, respectively.
